This is an account of results in patent publication US6696497B2, “Fungicidal mixtures” (BASF Aktiengesellschaft, priority 2000, dated 2004).

Assay [1] concerns Plasmopara viticola on grapes. Put plainly: Fungicidal efficacy (2 day curative) on grapes, greenhouse. The class given is in vivo. As to conditions: single compound. As to the method: (§1) The trials are carried out under greenhouse conditions in residual or curative applications. The fungicides are applied in single treatments, or in a combination comprising a benzophenone of formula I and a compound of formula II. The compounds are applied in form of an aqueous spray mix obtained from concentrated formulation or the technical material.
(§2) Grape plants of variety “Mueller-Thurgau” are grown in the greenhouse from small stake cuttings. When about 40 cm high, the number of leaves is reduced to 4 fully expanded leaves per plant.
(§3) The compounds are dissolved in acetone with 0.5% TRITON™ X155 (an alkylaryl polyether alcohol), and sprayed in concentrations and combinations as given in tables I and II with a three nozzle overhead fungicide sprayer to near run-off. Plants are then allowed to air-dry.
(§4) Inoculation precedes treatment in the case of curative evaluations and follows treatment in case of residual evaluations.
(§5) For inoculation an aqueous spore suspension of the pathogen is applied to the plant and the plants are kept 1-2 days in a moist infection chamber before being returned to the greenhouse where they are maintained by bottom watering.
(§6) Disease on the foliage as percent leaf area with disease symptoms/signs is evaluated about 7 days after inoculation. [formula]
(§7) Assessments of the diseases took place at the indicated day after the application of the compounds. Percent infected leaf area infected was evaluated. The efficacy of the compounds/compounds mixtures to control the diseases was calculated by using the formula given above.
(§8) Synergy was calculated using the % disease control values of specific treatments for the two COLBY formula given hereinabove.
Fungicidal efficacy of the mixture of BP-4+iprovalicarb (2 day curative) against Plasmopara viticola on grapes
The tank mix was obtained from technical materials of BP-4 and iprovalicarb.

In assay [2] the test system is Plasmopara viticola on grapes. Put plainly: Fungicidal efficacy (3 day residual) on grapes, greenhouse. The class given is in vivo. As to conditions: single compound. As for the experimental part:
as §1, §2, §3, §4, §5, §6, §7, §8
Fungicidal efficacy of the mixture of BP-4+iprovalicarb (3 day residual) against Plasmopara viticola on grapes
tank mix was obtained from technical materials of BP-4 and iprovalicarb.

Structures are written as SMILES.

Turning to `COc1cc(C)c(C(=O)c2c(OC)ccc(Br)c2C)c(OC)c1OC` [BP-4, 5-bromo-2′,6-dimethyl-2,4′,5′,6′-tetramethoxybenzophenone], the “Observed Efficacy” value in assay [1] (dose rate 0.037 ppm), in assay [1] (dose rate 0.11 ppm), in assay [1] (dose rate 0.33 ppm), in assay [1] (dose rate 1 ppm), in assay [1] (dose rate 3 ppm) and in assay [1] (dose rate 9 ppm) was 0% each time. Further, the “Observed Efficacy” value in assay [1] (dose rate 27 ppm) is on record as 2%; in assay [2] (dose rate 0.037 ppm) it was 0%; in assay [2] (dose rate 0.11 ppm), 0%; in assay [2] (dose rate 0.33 ppm), 0%; in assay [2] (dose rate 1 ppm) it was 0%; in assay [2] (dose rate 3 ppm) it was 1%. The entries for the “Observed Efficacy” value in assay [2] (dose rate 9 ppm) and in assay [2] (dose rate 27 ppm) were 4% and 6%, respectively.
In the case of `Cc1ccc(C(C)NC(=O)C(NC(=O)OC(C)C)C(C)C)cc1` (stereo not drawn) [iprovalicarb, [2-methyl-1-[1-(4-methylphenyl)-ethylaminocarbonyl]-propyl]-carbamic acid isopropyl ester, reference compound], the “Observed Efficacy” value is 0% in assay [1] (dose rate 0.11 ppm); 2% in assay [1] (dose rate 0.33 ppm); 11% in assay [1] (dose rate 1 ppm); 63% in assay [1] (dose rate 3 ppm); 91% in assay [1] (dose rate 9 ppm); 0% in assay [2] (dose rate 0.11 ppm). Moreover, the “Observed Efficacy” value in assay [2] (dose rate 0.33 ppm) worked out at 3%; in assay [2] (dose rate 1 ppm) it was 11%; in assay [2] (dose rate 3 ppm), 55%; in assay [2] (dose rate 9 ppm), 90%.
